# From patent US8536332B2, “Modulating signal transduction pathways with substituted pyridol [2,3-b] pyrazines” (Aeterna Zentaris GmbH, priority 2007, dated 2013)
row,Structure (SMILES),melting point [°C]
1,"CCNC(=O)Nc1ccc2ncc(-c3cccnc3OC(C)C)nc2n1 [Compound 51, 1-Ethyl-3-[3-(2-isopropoxy-pyridin-3-yl)-pyrido[2,3-b]pyrazin-6-yl]-urea]",231 to 232
2,"CCNC(=O)Nc1cnc2ccc(-c3ccncc3)nc2n1 [Compound 7, 1-Ethyl-3-(6-pyridin-4-yl-pyrido[2,3-b]pyrazin-3-yl)-urea]",211
3,"CCNC(=O)Nc1ccc2ncc(-c3ccc(OC)cc3C)nc2n1 [Compound 98, 1-Ethyl-3-[3-(4-methoxy-2-methyl-phenyl)-pyrido[2,3-b]pyrazin-6-yl]-urea]",223 to 225
4,"CCNC(=O)Nc1ccc2ncc(-c3cccc(F)c3)nc2n1 [Compound 129, 1-Ethyl-3-[3-(3-fluoro-phenyl)-pyrido[2,3-b]pyrazin-6-yl]-urea]",283 to 286
5,"CCNC(=O)Nc1cnc2ccc(Cl)nc2n1 [Example 1, 1-(6-Chloro-pyrido[2,3-b]pyrazin-3-yl)-3-ethyl-urea]",240
6,"C=CCNC(=O)Nc1cnc2ccc(-c3ccc(O)c(OC)c3)nc2n1 [Compound 18, 1-Allyl-3-[6-(4-hydroxy-3-methoxy-phenyl)-pyrido[2,3-b]pyrazin-3-yl]-urea]",211 to 213
7,"CCNC(=O)Nc1cnc2ccc(-c3cnn(C)c3)nc2n1 [Compound 10, 1-Ethyl-3-[6-(1-methyl-1H-pyrazol-4-yl)-pyrido[2,3-b]pyrazin-3-yl]urea]",211
8,"COc1ccc(-c2ccc3ncc(NC(=O)NC(C)(C)C)nc3n2)cc1OC [Compound 568, 1-tert-Butyl-3-[6-(3,4-dimethoxy-phenyl)-pyrido[2,3-b]pyrazin-3-yl]-urea]",230 to 233
9,"CCNC(=O)Nc1ccc2ncc(Nc3ccc(O)cc3C)nc2n1 [Compound 394, 1-Ethyl-3-[3-(4-hydroxy-2-methyl-phenylamino)-pyrido[2,3-b]pyrazin-6-yl]-urea]",272
10,"COc1ccc(-c2ccc3ncc(NC(=O)NC(C)C)nc3n2)cc1OC [Compound 567, 1-[6-(3,4-Dimethoxy-phenyl)-pyrido[2,3-b]pyrazin-3-yl]-3-isopropyl-urea]",233 to 236
11,"CCNC(=O)Nc1cnc2ccc(-c3ccc(Cl)cc3)nc2n1 [Compound 6, 1-[6-(4-Chloro-phenyl)-pyrido[2,3-b]pyrazin-3-yl]-3-ethyl-urea]",276
12,"CCNC(=O)Nc1ccc2ncc(-c3cc(C)cc(C)c3)nc2n1 [Compound 82, 1-[3-(3,5-Dimethyl-phenyl)-pyrido[2,3-b]pyrazin-6-yl]-3-ethyl-urea]",255.3 to 257.9
13,"COc1cc(-c2ccc3ncc(NC(=O)Nc4ccc(Cl)cc4)nc3n2)ccc1O [Compound 529, 1-(4-Chloro-phenyl)-3-[6-(4-hydroxy-3-methoxy-phenyl)-pyrido[2,3-b]pyrazin-3-yl]-urea]",224 to 226
14,"CCNC(=O)Nc1cnc2ccc(-c3cccc(OC(C)C)c3)nc2n1 [Compound 177, 1-Ethyl-3-[6-(3-isopropoxy-phenyl)-pyrido[2,3-b]pyrazin-3-yl]-urea]",234 to 237
15,CCNC(=O)Nc1ccc2ncc(-c3c(F)cccc3OC)nc2n1 [Compound 137],236 to 239
16,"CCNC(=O)Nc1ccc2ncc(-c3cc4ccccc4[nH]3)nc2n1 [Compound 70, 1-Ethyl-3-[3-(1H-indol-2-yl)-pyrido[2,3-b]pyrazin-6-yl]-urea]",> 300
17,"CCNC(=O)Nc1ccc2ncc(-c3cc(Cl)c(OS(C)(=O)=O)c(OC)c3)nc2n1 [Compound 37, Methanesulfonic acid 2-chloro-4-[6-(3-ethyl-ureido)-pyrido[2,3-b]pyrazin-3-yl]-6-methoxy-phenyl ester]",247 to 249
18,"CCCCNC(=O)Nc1cnc2ccc(-c3ccc(O)c(OC)c3)nc2n1 [Compound 631, 1-Butyl-3-[6-(4-hydroxy-3-methoxy-phenyl)-pyrido[2,3-b]pyrazin-3-yl]-urea]",223 to 226
19,"CCNC(=O)Nc1cnc2ccc(-c3ccc(O)c(Br)c3)nc2n1 [Compound 641, 1-[6-(3-Bromo-4-hydroxy-phenyl)-pyrido[2,3-b]pyrazin-3-yl]-3-ethyl-urea]",291
20,"CCNC(=O)Nc1ccc2ncc(Nc3ccc(C(=O)N4CCOCC4)cc3)nc2n1 [Compound 48, 1-Ethyl-3-{3-[4-(morpholine-4-carbonyl)-phenylamino]-pyrido[2,3-b]-pyrazin-6-yl}-urea]",276 to 279
21,"CCNC(=O)Nc1cnc2ccc(N3CCN(C)CC3)nc2n1 [Compound 227, 1-Ethyl-3-[6-(4-methyl-piperazin-1-yl)-pyrido[2,3-b]pyrazin-3-yl]-urea]",214 to 216
22,"CCNC(=O)Nc1ccc2ncc(-c3cc(OC)ccc3OC)nc2n1 [Compound 145, 1-[3-(2,5-Dimethoxy-phenyl)-pyrido[2,3-b]pyrazin-6-yl]-3-ethyl-urea]",207 to 209
23,"O=C(Nc1ccccc1)Nc1cnc2ccc(Nc3ccccc3)nc2n1 [Compound 14, 1-Phenyl-3-(6-phenylamino-pyrido[2,3-b]pyrazin-3-yl)-urea]",251
24,"CCNC(=O)Nc1ccc2ncc(-c3ccc(NC(=O)OCCOC)c(OC)c3)nc2n1 [Compound 40, {4-[6-(3-Ethyl-ureido)-pyrido[2,3-b]pyrazin-3-yl]-2-methoxy-phenyl}-carbamic acid 2-methoxy-ethyl ester]",> 240
25,"CCNC(=O)Nc1ccc2ncc(-c3cccc(SC)c3)nc2n1 [Compound 117, 1-Ethyl-3-[3-(3-methylsulfanyl-phenyl)-pyrido[2,3-b]pyrazin-6-yl]-urea]",221 to 224
26,"O=C(Nc1ccc(F)cc1)Nc1cnc2ccc(-c3cc(Cl)c(O)c(Cl)c3)nc2n1 [Compound 559, 1-[6-(3,5-Dichloro-4-hydroxy-phenyl)-pyrido[2,3-b]pyrazin-3-yl]-3-(4-fluoro-phenyl)-urea]",289 to 291
27,"CCNC(=O)Nc1cnc2ccc(-c3ccc(O)cc3)nc2n1 [Compound 182, 1-Ethyl-3-[6-(4-hydroxy-phenyl)-pyrido[2,3-b]pyrazin-3-yl]-urea]",277 to 279
28,"COc1cc(-c2ccc3ncc(NC(=S)NC4CCCCCCC4)nc3n2)ccc1O [Compound 653, 1-Cyclooctyl-3-[6-(4-hydroxy-3-methoxy-phenyl)-pyrido[2,3-b]pyrazin-3-yl]-thiourea]",250 to 251
29,"Cc1noc(C)c1NC(=O)Nc1cnc2ccc(-c3cc(Cl)c(O)c(Cl)c3)nc2n1 [Compound 562, 1-[6-(3,5-Dichloro-4-hydroxy-phenyl)-pyrido[2,3-b]pyrazin-3-yl]-3-(3,5-dimethyl-isoxazol-4-yl)-urea]",257 to 260

# Second part, the molecule after the results:
row,melting point [°C],Structure (SMILES)
1,210,"CCCCCNC(=S)Nc1ccc2ncc(Nc3cc(OC)c(OC)c(OC)c3)nc2n1 [Compound 702, 1-Pentyl-3-[3-(3,4,5-trimethoxy-phenylamino)-pyrido[2,3-b]pyrazin-6-yl]-thiourea]"
2,267 to 269,"Cc1cc(-c2ccc3ncc(NC(=O)NCCc4ccccc4)nc3n2)cc(C)c1O [Compound 588, 1-[6-(4-Hydroxy-3,5-dimethyl-phenyl)-pyrido[2,3-b]pyrazin-3-yl]-3-phenethyl-urea]"
3,230,"CCNC(=O)Nc1ccc2ncc(Nc3cccc(Oc4ccccc4)c3)nc2n1 [Compound 155, 1-Ethyl-3-[3-(3-phenoxy-phenylamino)-pyrido[2,3-b]pyrazin-6-yl]-urea]"
4,238,"CCNC(=S)Nc1cnc2ccc(Nc3cc(OC)c(OC)c(OC)c3)nc2n1 [Compound 200, 1-Ethyl-3-[6-(3,4,5-trimethoxy-phenylamino)-pyrido[2,3-b]pyrazin-3-yl]-thiourea]"
5,250,"CCNC(=S)Nc1ccc2ncc(Nc3ccc(O)c([N+](=O)[O-])c3)nc2n1 [Compound 491, 1-Ethyl-3-[3-(4-hydroxy-3-nitro-phenylamino)-pyrido[2,3-b]pyrazin-6-yl]-thiourea]"
6,203,"CCNC(=S)Nc1cnc2ccc(Nc3ccc(O)c(Cl)c3)nc2n1 [Compound 208, 1-[6-(3-Chloro-4-hydroxy-phenylamino)-pyrido[2,3-b]pyrazin-3-yl]-3-ethyl-thiourea]"
7,276,"CCNC(=S)Nc1ccc2ncc(Nc3ccc(OC)c(Cl)c3)nc2n1 [Compound 159, 1-[3-(3-Chloro-4-methoxy-phenylamino)-pyrido[2,3-b]pyrazin-6-yl]-3-ethyl-thiourea]"
8,280,"CCNC(=S)Nc1ccc2ncc(Nc3ccccc3O)nc2n1 [Compound 149, 1-Ethyl-3-[3-(2-hydroxy-phenylamino)-pyrido[2,3-b]pyrazin-6-yl]-thiourea]"
9,269 to 271,"COc1ccc(-c2ccc3ncc(NC(=O)Nc4ccc(F)cc4)nc3n2)cc1OC [Compound 572, 1-[6-(3,4-Dimethoxy-phenyl)-pyrido[2,3-b]pyrazin-3-yl]-3-(4-fluoro-phenyl)-urea]"
10,250 to 252,"COc1cc(Nc2cnc3ccc(NC(=S)NCc4ccccc4)nc3n2)cc(OC)c1OC [Compound 697, 1-Benzyl-3-[3-(3,4,5-trimethoxy-phenylamino)-pyrido[2,3-b]pyrazin-6-yl]-thiourea]"
11,260,"CCNC(=S)Nc1ccc2ncc(Nc3ccc(F)c([N+](=O)[O-])c3)nc2n1 [Compound 489, 1-Ethyl-3-[3-(4-fluoro-3-nitro-phenylamino)-pyrido[2,3-b]pyrazin-6-yl]-thiourea]"
12,195 to 198,"COc1cc(Nc2cnc3ccc(NC(=S)NCCCc4ccccc4)nc3n2)cc(OC)c1OC [Compound 704, 1-(3-Phenyl-propyl)-3-[3-(3,4,5-trimethoxy-phenylamino)-pyrido[2,3-b]pyrazin-6-yl]-thiourea]"
13,248,"COc1cc(Nc2cnc3ccc(NC(=S)NC(C)c4ccccc4)nc3n2)cc(OC)c1OC (stereo not shown) [Compound 711, 1-(1-Phenyl-ethyl)-3-[3-(3,4,5-trimethoxy-phenylamino)-pyrido[2,3-b]pyrazin-6-yl]-thiourea]"
14,233 to 236,"COc1cc(-c2ccc3ncc(NC(=O)NCCCc4ccccc4)nc3n2)ccc1O [Compound 629, 1-[6-(4-Hydroxy-3-methoxy-phenyl)-pyrido[2,3-b]pyrazin-3-yl]-3-(3-phenyl-propyl)-urea]"
